Test results published in US20220168268A1, “SMALL-MOLECULE INHIBITOR OF PD-1/PD-L1, PHARMACEUTICAL COMPOSITION THEREOF WITH PD-L1 ANTIBODY, AND APPLICATION OF SAME” (Guangzhou Maxinovel Pharmaceuticals Co., Ltd., priority 2019, published 2022).
“And” between values parts separate entries of the source, which are not always exact repeats. Equal values may be shown once.

Tests used:
[1] = Pharmacokinetic experiment in mice (iv and oral gavage); type: in vivo; details: mouse, whole blood; CD1 male mice; tail vein 2 mg/kg and oral gavage 10 mg/kg
Source text: Glipizide (molecular formula was C21H27N5O4S, molecular weight was 445.5 g/mol, Analytical Reagent) purchased from Sigma-Aldrich (U.S.A.), was used as the internal standard for analysis. Methanol, acetonitrile and formic acid (HPLC grade) were purchased from Sigma-Aldrich (U.S.A.), and pure water was purchased from Hangzhou Wahaha Group Co., Ltd. (Hangzhou, China). Other chemical reagents were all analytical reagents.
CD1 male mice, six per group, 6-7 weeks old, 29-31 g, were purchased from LC Laboratory Animal Co. LTD. Before the experiment, the animals should be kept for at least 3 days to adapt to the environment. Throughout the experiment, the animals were required to fast overnight, and allowed to drink water freely during the period, and the surviving animals resumed feeding 4 hours after administration.
1. The compound was formulated into a solution with a concentration of 0.4 mg/mL with 10% DMSO, 10% Solutol HS 15 and 80% Saline.
2. The above prepared solution was administered to 3 mice by tail vein injection (compound dosage was 2 mg/kg), and was administered to another 3 mice by oral gavage (compound dosage was 10 mg/kg) simultaneously.
3. Approximately 30 μL of blood was collected from each of the above 6 mice at 5 minutes, 15 minutes, 30 minutes, 1 hour, 2 hours, 4 hours, 8 hours and 24 hours after administration into the EDTA-K2 anticoagulation tube (set on wet ice), and 20 μL of blood was immediately diluted with 60 μL of water, and then put in the refrigerator at −70° C. for long-term storage until the sample was analyzed.
4. 20 μL of the above solution was transfered into a 96-well deep well sample plate, and 150 μL of glipizide internal standard acetonitrile solution (the concentration was 100 ng/mL) was added, vortexed for 10 min, and centrifuged at […] for 10 min 1 μL of the supernatant was taken for LCMSMS analysis.
5. Based on the drug concentration-time data, WinNonlin 6.4 software (USA) was used to calculate the pharmacokinetic parameters of the compound according to the non-compartment model.

PD-1/PD-L1 = target: T1, PD-1/PD-L1 (Homo sapiens, UniProt Q9NZQ7); assay: Homogeneous Time-Resolved Fluorescence (HTRF) PD-1/PD-L1 binding assay; details: CisBio kit
T1 construct: unspecified kit tag (tag1 or tag2, recognised by the detection antibodies); purchased CisBio 64CUS000C-1
T1 sequence (Q9NZQ7 19-238 limits assumed): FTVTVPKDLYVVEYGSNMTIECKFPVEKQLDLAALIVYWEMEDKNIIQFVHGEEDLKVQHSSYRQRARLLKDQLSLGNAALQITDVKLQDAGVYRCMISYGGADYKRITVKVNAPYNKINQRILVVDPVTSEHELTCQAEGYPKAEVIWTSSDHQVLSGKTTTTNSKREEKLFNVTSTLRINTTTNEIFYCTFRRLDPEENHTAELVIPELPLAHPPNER
Description: Homogenouse Time-Resolved Fluorescence (HTRF) binding assay was used to determine the binding activity of the compound of the present disclosure to PD-1/PD-L1.
The purchased kit (CisBio, #64CUS000C-1) contained the reagents required for experiments such as PD-1, PD-L1, anti-tagl-Eu, Anti-tag2-XL665, Dilute Buffer and Detection Buffer.
1. The compound was formulated to 10 concentrations with a three-fold concentration gradient with 100% DMSO.
2. The solution of the compound in DMSO was added to Dilute Buffer, and mixed evenly and then transferred to a 96-well plate.
3. PD-L1 was diluted with Dilute Buffer and added to the 96-well plate above.
4. PD-1 was diluted with Dilute Buffer, then added to the 96-well plate above and incubated at room temperature for 30 minutes.
5. One portion of anti-tag1-Eu and one portion of anti-tag2-XL665 were added to Detection Buffer, mixed evenly and transferred to the 96-well plate above.
6. The mixed solution in the 96-well plate were incubated at room temperature for 1 to 24 hours.
7. HTRF values were read by Envision.

[2] = system: colon cancer MC-38-hPD-L1; assay: In vivo pharmacodynamics in hPD-1 knock-in mouse colon cancer MC-38-hPD-L1 model; set-up: species or system C57BL/6-hPD-1 mice; details: D19; for Tumor Volume: mean ± SEM
Description: In vivo pharmacodynamics study of PD-L1 antibody Durvalumab and compound 29 used singly or in combination in hPD-1 knock-in mouse colon cancer MC-38-hPD-L1 model
Antibody: PD-L1 antibody Imfinzi (Durvalumab), 120 mg/2.4 mL (50 mg/mL), Lot: 041E17C. Manufacturer: AstraZeneca, purchased from Hong Kong Mingchuang Pharmacy Co., Ltd., stored at 2-8° C.
Experimental animals: Human PD-1 transgenic mice, strain: C57BL/6-hPD-1 mice, 6-8 weeks, weighing 18-21 grams, female, 120 mice, purchased from GemPharmatech Co., Ltd.
Human PD-L1 gene was knocked into MC-38 cells (MC-38-hPD-L1 cells), MC-38 cells was adherent cultured in vitro in DMEM medium with 10% heat-inactivated fetal bovine serum and hygromycinB (final concentration […]) at 37° C. under 5% CO2.
Passage cultivation was conducted three times a week. The cells were collected and counted at the exponential growth phase. 100 μL 1×10^6 MC-38-hPD-L1 cells suspension was inoculated into the right dorsal subcutaneous of C57BL/6-hPD-1 mice. 6 days after inoculation, 60 tumor-bearing mice with transplanted tumor volume ranging from 31.49 mm^3-110.26 mm^3 were selected, the mice were randomly divided into 6 groups, with 10 in each group, according to the experimental plan, and administration was started on the same day.
Preparation of vehicle: 800 mL sterile water was measured and added to volumertic flask. Magnetic stirring was carried out to produce vortex on the liquid surface. An aqueous solution of 10% (w/v) Cremophor RH40+20% (w/v) SBE-β-CD was obtained by slow addition of 100 g Cremophor RH40, followed by 200 g SBE-β-CD, and water to fix the solution volume to 1000 mL with fully stirring.
Preparation of Compound 29 suspension: 150.92 mg compound 29 was weighed and 12.5 […] 10% (w/v) Cremophor RH40+20% (w/v) SBE-β-CD (hereinafter referred to as vehicle) aqueous solution was added. A suspension was with a concentration of 12.0 mg/mL was obtained by fully mixing with vortexing for 2 minutes and ultrasonic treatment for 30 minutes. 5.0 mL of the suspension of compound 29 with a concentration of 12.0 mg/mL was pipetted, and 5.0 mL of vehicle was added to the suspension. The suspension with a concentration of 6.0 mg/mL was obtained by fully mixing with vortexing for 1 minute and ultrasonic treatment for 5 minutes. 2.0 mL of the suspension of compound 29 with a concentration of 12.0 mg/mL was pipetted, and 6.0 mL of vehicle was added to the suspension. The suspension with a concentration of 3.0 mg/mL was obtained by fully mixing with vortexing for 1 minute and ultrasonic treatment for 5 minutes. The suspension of compound 29 was prepared once a day.
Preparation of PD-L1 antibody: […] of Durvalumab stock solution (concentration: 50 mg/mL) was pipetted and divided into 6 portions in 5 mL sterile centrifuge tube, with 6.0 mg in each portion, then the portions were stored in a 4° C. refrigerator for late use. Before administration, 0.12 mL of stock solution (concentration: 50 mg/mL) was pipetted, 2.88 mL of 0.9% sodium chloride solution was added to the stock solution. 3 mL of the solution of Durvalumab with a final concentration 2 mg/mL was obtained by shaking slightly and fully vortexing.
1) The mice in the vehicle control group were weighed and recorded in an electronic balance according to the number. The mice in the vehicle control group were administered by oral gavage with vehicle according to the weight twice a day with a capacity of 0.1 mL/10 g. The time for administration was about 20 s for each mouse, and about 5 minutes in total for each group of 10 mice. 2) The mice in the compound 29 (30 mg/kg) group were weighed and recorded in an electronic balance according to the number. The mice in this group were administered by oral gavage with the prepared Compound 29 suspension according to the weight twice a day with a dosage of 30 mg/kg and a capacity of 0.1 mL/10 g. The time for administration was about 20 s for each mouse, and about 5 minutes in total for each group of 10 mice. […]

Row | Compound | bioavailability [1] | IC50 (PD-1/PD-L1) | other results
1 | Cc1c(/C=C/c2cc(CNC(C)(CO)C(=O)O)ccc2C(F)(F)F)cccc1-c1ccc2c(c1)OCCO2 (stereo not shown) | 5.98% |  | 
2 | COc1cc(/C=C/c2cccc(-c3ccccc3)c2C)cc(OC)c1CN[C@@](C)(CO)C(=O)O | 3.89% |  | 
3 | COc1cc(/C=C/c2cccc(-c3ccccc3)c2C)cc(OC)c1CN[C@](C)(CO)C(=O)O | 4.42% |  | 
4 | Cc1c(/C=C/c2cc(CNC(CO)C(=O)O)ccc2C(F)(F)F)cccc1-c1ccccc1F (stereo not shown) [Compound 13, (E)-2-(3-(2-(2′-fluoro-2-methylbiphenyl-3-yl)vinyl)-4-(trifluoromethyl)benzylamino)-3-hydroxypropanoic Acid] | 16.1% | 13 nM | 
5 | Cc1c(/C=C/c2cc(CN[C@@](C)(CO)C(=O)O)ccc2C(F)(F)F)cccc1-c1cccnc1 [Compound 40, (S,E)-3-hydroxy-2-methyl-2-(3-(2-methyl-3-(pyridin-3-yl)styryl)-4-(trifluoromethyl)benzylamino)propanoic Acid] |  | 580 nM | 
6 | Cc1c(/C=C/c2cc(CN[C@@](C)(CO)C(=O)O)ccc2C(F)(F)F)cccc1-c1cnccn1 [Compound 41, (S,E)-3-hydroxy-2-methyl-2-(3-(2-methyl-3-(pyrazin-2-yl)styryl)-4-(trifluoromethyl)benzylamino)propanoic Acid] |  | 540 nM | 
7 | Durvalumab: PD-L1 antibody Imfinzi (Durvalumab), 50 mg/mL, manufacturer AstraZeneca [reference compound] |  |  | Tumor Volume ([2]; Durvalumab 20 mg/kg, IP, BIW): 341.19 ± 56.59/D19 mm^3; TGI (tumor inhibition rate) ([2]; Durvalumab 20 mg/kg, IP, BIW, vs vehicle control): 48.17% and 48.17/D19%

Further lines, with some results ahead:

Row | bioavailability [1] | IC50 (PD-1/PD-L1) | Compound | other results
8 | 3.08% |  | COc1cc(/C=C/c2cccc(-c3ccccc3)c2C)cc(OC)c1CN[C@@H](CO)C(=O)O | 
9 | 52.3% | 18 nM | Cc1c(/C=C/c2cc(CN[C@](C)(CO)C(=O)O)ccc2C(F)(F)F)cccc1-c1ccccc1 [Compound 27, (R,E)-2-(3-(2-(2-methylbiphenyl-3-yl)vinyl)-4-(trifluoromethyl)benzylamino)-3-hydroxy-2-methylpropanoic Acid] | 
10 | 38.2% | 19 nM | Cc1c(/C=C/c2cc(CN[C@@](C)(CO)C(=O)O)ccc2C(F)(F)F)cccc1-c1ccccc1 [Compound 29, (S,E)-2-(3-(2-(2-methylbiphenyl-3-yl)vinyl)-4-(trifluoromethyl)benzylamino)-3-hydroxy-2-methylpropanoic Acid] | Tumor Volume ([2]; 30 mg/kg, PO, BID): 459.82 ± 58.24/D19 mm^3; TGI (tumor inhibition rate) ([2]; 30 mg/kg, PO, BID, vs vehicle control): 24.95/D19%; Tumor Volume ([2]; 60 mg/kg, PO, BID): 439.04 ± 51.23/D19 mm^3; TGI (tumor inhibition rate) ([2]; 60 mg/kg, PO, BID, vs vehicle control): 29.06/D19%; Tumor Volume ([2]; 120 mg/kg, PO, BID): 325.23 ± 38.59/D19 mm^3; TGI (tumor inhibition rate) ([2]; 120 mg/kg, PO, BID, vs vehicle control (max tumor inhibition rate of Compound 29)): 51.21% and 51.21/D19%
11 |  | 880 nM | Cc1c(/C=C/c2cc(CN[C@@](C)(CO)C(=O)O)ccc2C(F)(F)F)cccc1-c1ccc2cn(C)nc2c1 [Compound 42, (S,E)-3-hydroxy-2-methyl-2-(3-(2-methyl-3-(2-methyl-2H-indazol-6-yl)-styryl)-4-(trifluoromethyl)benzylamino)propanoic Acid] | 
12 |  | 540 nM | Cc1nc2ccc(-c3cccc(/C=C/c4cc(CN[C@@](C)(CO)C(=O)O)ccc4C(F)(F)F)c3C)cc2o1 [Compound 43, (S,E)-3-hydroxy-2-methyl-2-(3-(2-methyl-3-(2-methylbenzo[d]oxazol-6-yl)-styryl)-4-(trifluoromethyl)benzylamino)-3-hydroxy-2-methylpropanoic Acid] | 
